# Data as given in ChEMBL document CHEMBL5331114, “Discovery of Pyxinol Amide Derivatives Bearing Amino Acid Residues as Nonsubstrate Allosteric Inhibitors of P-Glycoprotein-Mediated Multidrug Resistance” (J Med Chem, 2023).
# Columns and labels:
# Assay type in all cases: functional
# Settings in all cases: read-out: Survival
# [1] = Cytotoxicity against human KBV Cells assessed as cell survival rate at 10 uM incubated for 72 hrs by MTT assay
# [2] = Reversal of multidrug resistance in human KBV Cells assessed as increase in PTX-induced cytotoxicity by measuring cell survival rate at 5 uM incubated for 72 hrs in presence of paclitaxel by MTT assay relative to control
# [3] = Reversal of multidrug resistance in human KBV Cells assessed as increase in PTX-induced cytotoxicity by measuring cell survival rate at 10 uM incubated for 72 hrs in presence of paclitaxel by MTT assay relative to control
Compound,viability at 10 µM [1],viability at 5 µM [2],viability at 10 µM [3]
CC(C)(O)[C@@H]1CC[C@@](C)([C@H]2CC[C@]3(C)[C@@H]2[C@H](O)C[C@@H]2[C@@]4(C)CC[C@H](NC(=O)[C@@H](N)Cc5ccccc5)C(C)(C)[C@@H]4CC[C@]23C)O1,89%,67%,36%
CC(C)(O)[C@@H]1CC[C@@](C)([C@H]2CC[C@]3(C)[C@@H]2[C@H](O)C[C@@H]2[C@@]4(C)CC[C@H](NC(=O)[C@@H](N)Cc5ccc(O)cc5)C(C)(C)[C@@H]4CC[C@]23C)O1,91%,88%,71%
CC(C)(C)OC(=O)N[C@@H](Cc1ccc(OC(C)(C)C)cc1)C(=O)N[C@H]1CC[C@]2(C)[C@H]3C[C@@H](O)[C@@H]4[C@@H]([C@]5(C)CC[C@H](C(C)(C)O)O5)CC[C@@]4(C)[C@]3(C)CC[C@H]2C1(C)C,125%,42%,38%
CC(C)(O)[C@H]1CC[C@@](C)([C@H]2CC[C@]3(C)[C@@H]2[C@H](O)C[C@@H]2[C@@]4(C)CC[C@H](NC(=O)[C@@H](N)CCCCN)C(C)(C)[C@@H]4CC[C@]23C)O1,116%,110%,112%
CC(C)[C@H](N)C(=O)N[C@H]1CC[C@]2(C)[C@H]3C[C@@H](O)[C@@H]4[C@@H]([C@]5(C)CC[C@@H](C(C)(C)O)O5)CC[C@@]4(C)[C@]3(C)CC[C@H]2C1(C)C,79%,81%,52%
CC(C)[C@H](NC(=O)OC(C)(C)C)C(=O)N[C@H]1CC[C@]2(C)[C@H]3C[C@@H](O)[C@@H]4[C@@H]([C@]5(C)CC[C@@H](C(C)(C)O)O5)CC[C@@]4(C)[C@]3(C)CC[C@H]2C1(C)C,89%,48%,31%
CC(C)(O)[C@H]1CC[C@@](C)([C@H]2CC[C@]3(C)[C@@H]2[C@H](O)C[C@@H]2[C@@]4(C)CC[C@H](NC(=O)[C@@H](N)Cc5ccc(O)cc5)C(C)(C)[C@@H]4CC[C@]23C)O1,93%,59%,35%
CC(C)(O)[C@@H]1CC[C@@](C)([C@H]2CC[C@]3(C)[C@@H]2[C@H](O)C[C@@H]2[C@@]4(C)CC[C@H](N)C(C)(C)[C@@H]4CC[C@]23C)O1,98%,94%,55%
CC(C)(O)[C@H]1CC[C@@](C)([C@H]2CC[C@]3(C)[C@@H]2[C@H](O)C[C@@H]2[C@@]4(C)CC[C@H](N)C(C)(C)[C@@H]4CC[C@]23C)O1,98%,44%,40%
CC(C)(C)OC(=O)NCCCC[C@H](NC(=O)OC(C)(C)C)C(=O)N[C@H]1CC[C@]2(C)[C@H]3C[C@@H](O)[C@@H]4[C@@H]([C@]5(C)CC[C@@H](C(C)(C)O)O5)CC[C@@]4(C)[C@]3(C)CC[C@H]2C1(C)C,99%,36%,29%
CC(C)(O)[C@H]1CC[C@@](C)([C@H]2CC[C@]3(C)[C@@H]2[C@H](O)C[C@@H]2[C@@]4(C)CC[C@H](NC(=O)[C@@H](N)CC(=O)O)C(C)(C)[C@@H]4CC[C@]23C)O1,95%,96%,100%
CC(C)(O)[C@@H]1CC[C@@](C)([C@H]2CC[C@]3(C)[C@@H]2[C@H](O)C[C@@H]2[C@@]4(C)CC[C@H](NC(=O)[C@@H](N)CCCCN)C(C)(C)[C@@H]4CC[C@]23C)O1,87%,90%,88%
CC(C)(O)[C@H]1CC[C@@](C)(C2CC[C@]3(C)[C@@H]2[C@H](O)C[C@@H]2[C@@]4(C)CC[C@H](O)C(C)(C)[C@@H]4CC[C@]23C)O1 (stereo partly drawn),94%,,64%
